Assay results taken from PubChem BioAssay (NCI).
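Five compound concentrations were applied to cells in 96-well plates for 48 hours; endpoints were derived by simple linear interpolation of the resulting dose-response curve. The concentration for 50% growth inhibition is given as GI50. Definition used: TGI = concentration required for complete inhibition of growth.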

Experiments:
Assay in all cases: NCI tumour cell line growth inhibition, 48 h
[1] = test system: MCF7 breast
[2] = test system: SK-MEL-5 melanoma
[3] = test system: SR leukemia
[4] = test system: HCT-15 colon
[5] = test system: 786-0 renal
[6] = test system: TK-10 renal
[7] = test system: HOP-92 NSCLC
[8] = test system: SF-268 CNS
[9] = test system: NCI-H23 lung
[10] = test system: DU-145 prostate
[11] = test system: MDA-MB-231 breast
[12] = test system: OVCAR-4 ovarian
[13] = test system: LOX IMVI melanoma
[14] = test system: SK-MEL-2 melanoma
[15] = test system: HL-60(TB) leukemia
[16] = test system: SF-295 CNS
[17] = test system: UO-31 renal
[18] = test system: MOLT-4 leukemia
[19] = test system: HT29 colon
[20] = test system: MDA-MB-435
[21] = test system: ACHN renal
[22] = test system: NCI-H522 lung
[23] = test system: M14 melanoma
[24] = test system: IGROV1 ovarian
[25] = test system: U251 CNS
[26] = test system: KM12 colon
[27] = test system: HCT-116 colon
[28] = test system: SNB-19 CNS
[29] = test system: OVCAR-3 ovarian
[30] = test system: PC-3 prostate
[31] = test system: NCI-H226 lung
[32] = test system: SK-MEL-28 melanoma
[33] = test system: BT-549 breast
[34] = test system: HS 578T breast
[35] = test system: RPMI-8226 leukemia
[36] = test system: UACC-62 melanoma
[37] = test system: HCC-2998 colon
[38] = test system: NCI-H460 lung
[39] = test system: OVCAR-8 ovarian
[40] = test system: UACC-257 melanoma
[41] = test system: SNB-75 CNS
[42] = test system: T-47D breast
[43] = test system: RXF 393 renal
[44] = test system: SK-OV-3 ovarian
[45] = test system: HOP-62 NSCLC
[46] = test system: SW-620 colon
[47] = test system: CAKI-1 renal
[48] = test system: NCI/ADR-RES ovarian
[49] = test system: A549 NSCLC
[50] = test system: COLO 205 colon
[51] = test system: SF-539 CNS
[52] = test system: SN12C renal
[53] = test system: OVCAR-5 ovarian
[54] = test system: CCRF-CEM leukemia
[55] = test system: A498 renal
[56] = test system: K-562 leukemia
[57] = test system: MALME-3M melanoma

**Q.** What does the source list for CCOC(=O)Nc1nc2ccc(OCC)cc2s1?
**A.** GI50 [1]: 4.14 µM; TGI [1]: > 100 µM; GI50 [2]: 5.56 µM; TGI [2]: > 100 µM; GI50 [3]: 1.12 µM; TGI [3]: > 100 µM; GI50 [4]: 5.12 µM; TGI [4]: > 100 µM; GI50 [5]: > 100 µM; TGI [5]: > 100 µM; GI50 [6]: > 100 µM; TGI [6]: > 100 µM; GI50 [7]: > 62.7 µM; TGI [7]: > 100 µM; GI50 [8]: 84.6 µM; TGI [8]: > 100 µM; GI50 [9]: > 100 µM; TGI [9]: > 100 µM; GI50 [10]: > 100 µM; TGI [10]: > 100 µM; GI50 [11]: > 100 µM; TGI [11]: > 100 µM; GI50 [12]: > 82.5 µM; TGI [12]: > 100 µM; GI50 [13]: 41.7 µM; TGI [13]: > 100 µM; GI50 [14]: 40.3 µM; TGI [14]: > 100 µM; GI50 [15]: 7.56 µM; TGI [15]: > 100 µM; GI50 [16]: > 100 µM; TGI [16]: > 100 µM; GI50 [17]: > 100 µM; TGI [17]: > 100 µM; GI50 [18]: 59.4 µM; TGI [18]: > 100 µM; GI50 [19]: 3.98 µM; TGI [19]: > 100 µM; GI50 [20]: 0.773 µM; TGI [20]: 3.71 µM; GI50 [21]: > 100 µM; TGI [21]: > 100 µM; GI50 [22]: 6.49 µM; TGI [22]: > 100 µM; GI50 [23]: 6.84 µM; TGI [23]: > 100 µM; GI50 [24]: 31.7 µM; TGI [24]: > 100 µM; GI50 [25]: 25.5 µM; TGI [25]: > 100 µM; GI50 [26]: 3.31 µM; TGI [26]: > 100 µM; GI50 [27]: 6.42 µM; TGI [27]: > 100 µM; GI50 [28]: > 100 µM; TGI [28]: > 100 µM; GI50 [29]: > 41.6 µM; TGI [29]: > 100 µM; GI50 [30]: > 100 µM; TGI [30]: > 100 µM; GI50 [31]: > 100 µM; TGI [31]: > 100 µM; GI50 [32]: > 60.7 µM; TGI [32]: > 100 µM; GI50 [33]: > 100 µM; TGI [33]: > 100 µM; GI50 [34]: 56.7 µM; TGI [34]: > 100 µM; GI50 [35]: 27.1 µM; TGI [35]: > 100 µM; GI50 [36]: 13.4 µM; TGI [36]: > 100 µM; GI50 [37]: 31.6 µM; TGI [37]: > 100 µM; GI50 [38]: 6.28 µM; TGI [38]: > 100 µM; GI50 [39]: 47.7 µM; TGI [39]: > 100 µM; GI50 [40]: > 100 µM; TGI [40]: > 100 µM; GI50 [41]: 22.7 µM; TGI [41]: > 100 µM; GI50 [42]: 28.8 µM; TGI [42]: > 100 µM; GI50 [43]: > 53.4 µM; TGI [43]: > 100 µM; GI50 [44]: > 100 µM; TGI [44]: > 100 µM; GI50 [45]: 39.4 µM; TGI [45]: > 100 µM; GI50 [46]: 4.25 µM; TGI [46]: > 100 µM; GI50 [47]: > 100 µM; TGI [47]: > 100 µM; GI50 [48]: 7.39 µM; TGI [48]: > 100 µM; GI50 [49]: 7.2 µM; TGI [49]: > 100 µM; GI50 [50]: 10.4 µM; TGI [50]: > 100 µM; GI50 [51]: 20.2 µM; TGI [51]: > 100 µM; GI50 [52]: > 93.4 µM; TGI [52]: > 100 µM; GI50 [53]: > 100 µM; TGI [53]: > 100 µM; GI50 [54]: > 100 µM; TGI [54]: > 100 µM; GI50 [55]: > 100 µM; TGI [55]: > 100 µM; GI50 [56]: 3.17 µM; TGI [56]: > 100 µM; GI50 [57]: > 100 µM; TGI [57]: > 100 µM
